Measured values reported in patent publication US6916844B2, “Hydroxy pyranone derivative and preparation method thereof” (Amorepacific Corporation, priority 2002, dated 2005).

Tests used:
Human fibroblasts [1] = experiment: Effect on biosynthesis of collagen (procollagen type (I) ELISA); assay type: cell-based; conditions: 10^-4 M, 24 hours, relative to untreated control group = 100
Procedure: The effect of the hydroxy pyranone derivatives obtained in Examples 1˜6 on biosynthesis of collagen was compared with those of retinol and retinoic acid.
Human fibroblasts were seeded into a 24-well plate to a density of 10^5 cells/well and then cultured to 90% of growth. The plate was washed with PBS (phosphate buffered saline) and treated with test samples at a concentration of 10^−4M, and then incubated in a CO2 incubator for 24 hours. From its supernatant, procollagen production was measured with procollagen type (I) ELISA kit. The biosynthesis of collagen was evaluated as a relative value compared with that of the control group, which is not treated with sample and of which the value of biosyntheis of collagen was set to be 100.

Human fibroblasts [2] = experiment: Collagenase-inhibiting effect (collagenase expression, ELISA kit); assay type: cell-based; conditions: 10^-4 M, 24 hours, relative to untreated control group = 100
Procedure: The collagenase-inhibiting effect of hydroxy pyranone derivatives obtained in Examples 1˜6 was compared with those of retinol and retinoic acid.
Human fibroblasts were cultured in Dulbecco's Modified Eagle's Medium (DMEM) supplemented with 2.5% fetal bovine serum. The fibroblasts were seeded into a 96-well microtiter plate to a density of 5,000 cells/well, and then cultured to 70˜80% of growth. The plate was treated with test samples at a concentration of 10^−4M for 24 hours, then the cultured medium and the cells were raked up and recovered. From the recovered culture, collagenase production was measured with collagenase kit (Catalog #: RPN 2610) commercialized by Amersham Pharmacia Biotech. First, the recovered culture was added into a 96-well plate wherein primary collagenase antibodies were uniformly spread, and then antigen-antibody reaction was performed in an incubator for 3 hours. Later, secondary collagenase antibodies bonded with chromophore were added to the 96-well plate and reacted for 15 minutes. Then, color former was added thereto in order to induce development at the room temperature for 15 minutes, and 1M of sulfuric acid was added to stop the reaction. The reaction solution became yellow, and the color density depends on the progress of the reaction. The absorbance of the yellow 96-well plate was measured at 405 nm with absorptiometer. The expression of collagenase was calculated by the following equation 1. No sample was treated in the control group.
[Equation 1] The expression of collagenase (%)=[(Absorbance of test group)/(Absorbance of control group)]×100
The expression of collagenase was evaluated as a relative value compared with that of the control group of which the expression of collagenase was set to be 100.

rabbits = experiment: Primary skin irritation test on animals (Draize P.I.I.); assay type: in vivo; conditions: 1% in 1,3-butylene glycol:ethanol=7:3, 0.5 ml, observed 24 and 72 hours later
Procedure: This test was performed for six (6) healthy male rabbits whose hairs on both sides of the backs were cut. The compounds of Examples 1˜6 were dissolved in 1,3-butylene glycol:ethanol=7:3, to obtain 1% concentration of test samples. 0.5 ml of each test samples were applied to right side area of 2.5 cm×2.5 cm. No sample was treated on left side as a control. 24 hours and 72 hours later, skin abnormality such as erythema, crust and edema was observed. Based on the score of skin response, skin irritation was estimated according to Draize's P.I.I. (Primary Irritation Index) and compared with that of retinoic acid.

white guinea pigs = experiment: Phototoxicity test; assay type: in vivo; conditions: 1% (w/v) solution, UVA 15 J/cm^2, observed at 24, 48 and 72 hours
Procedure: This test was performed for ten (10) white guinea pigs whose hairs on both sides of the backs were cut, and fixed. On the back of the guinea pig, six (6) test sites measuring 2.5 cm×2.5 cm, three (3) per each side, were sectioned. Right sites were prepared as controls with no irradiation (UV non-irradiation sites) and left sites were irradiated (UV irradiation sites). Vehicle (1,3-butylene glycol:ethanol=7:3) was used as a negative control, and 0.1% concentration of 8-MOP (methoxypsoralene) was used as a positive control; and 1% (w/v) solutions of the compounds of Examples 1˜6 were applied to either site with an amount of […] for each site. 30 minutes later, right sites were shielded with aluminum foil and UVA(320˜380 nm) was irradiated at a distance of about 10 cm therefrom with Waldmann to the final energy of 15 J/cm^2. After 24, 48 and 72 hours elapsed, skin response of guinea pig was observed. Erythema and edema were scored from 0 to 4 points as shown in the Table 3, and skin response was evaluated by summing the scores. Maximum scores were selected when measured on each elapsed time, i.e. 24, 48 and 72 hours, and irritation index was calculated according to the following equation 2. Then, phototoxic index was calculated according to the following equation 3.
[Equation 2] Irritation index=(Maximum of erythema+Maximum of edema)/Number of animals [Equation 3] Phototoxic index=(Irritation index of UV irradiation site)−(Irritation index of UV non-irradiation site)

[3] = system: healthy females and males; experiment: Human patch test; assay type: in vivo; conditions: 1% in patch base
Procedure: This test was performed for thirty (30) healthy females and males aged on average 24.8 years and having no experience of hypersensitivity, according to method of CTFA Guideline (The Cosmetic, Toiletry and Fragrance Association. Inc. Washington, D.C., 20023, 1991). Each compound of Examples 1˜6 was dissolved in patch base having the composition of Table 6 to be 1% concentration as for test materials, and 20 μl of each test materials was dropped into a Finn chamber respectively, then attached to the forearm of the subject and fixed with a micropore tape. After 24 hours of patching, the patches were removed and the test sites were marked with marking pen. The observations of the test sites were made after 24 and 48 hours from the patching.
The average response of Table 8 was calculated by the following equation 4. [formula]

Expression of collagenase (%) (Human fibroblasts [2]): 77%
Number of the subjected showing response, 24 hours later, − (No visible response) ([3]; n = 30, 24 hours later, grade 0): 29
Number of the subjected showing response, 24 hours later, ± (Mild erythema) ([3]; n = 30, 24 hours later, grade 1): 1
Number of the subjected showing response, 24 hours later, + (Intense erythema) ([3]; n = 30, 24 hours later, grade 2): 0
Number of the subjected showing response, 24 hours later, + + (Intense erythema with edema) ([3]; n = 30, 24 hours later, grade 3): 0
Number of the subjected showing response, 24 hours later, + + + (Intense erythema with edema and vesicle) ([3]; n = 30, 24 hours later, grade 4): 0
Number of the subjected showing response, 48 hours later, − (No visible response) ([3]; n = 30, 48 hours later, grade 0): 30
Number of the subjected showing response, 48 hours later, ± (Mild erythema) ([3]; n = 30, 48 hours later, grade 1): 0
Number of the subjected showing response, 48 hours later, + (Intense erythema) ([3]; n = 30, 48 hours later, grade 2): 0
Number of the subjected showing response, 48 hours later, + + (Intense erythema with edema) ([3]; n = 30, 48 hours later, grade 3): 0
Number of the subjected showing response, 48 hours later, + + + (Intense erythema with edema and vesicle) ([3]; n = 30, 48 hours later, grade 4): 0
Structure (SMILES): O=C(/C=C/c1ccc2c(c1)OCCO2)COc1cc(=O)c(O)co1 [Compound of Ex. 4, 2-((3E)-4-(2H,3H-benzo [3,4-e] 1,4-dioxan-6-yl)-2-oxobut-3-enyloxy)-5hydroxy-4-pyran-4-one]
Biosynthesis of collagen (%) (Human fibroblasts [1]): 122%
Evaluation (skin irritation) (rabbits): No irritation
P. I. I. (Primary Irritation Index) (rabbits): 0.350
Evaluation (phototoxicity) (white guinea pigs): No phototoxicity
Phototoxic index (white guinea pigs; below 0.5 = no phototoxicity): 0
Average Response (n = 30) ([3]; calculated by equation 4, below 1 = no irritation): 0.42
